Measurements: article PMC8253220, “Molecular design, synthesis and in vitro biological evaluation of thienopyrimidine–hydroxamic acids as chimeric kinase HDAC inhibitors: a challenging approach to combat cancer” (Journal of Enzyme Inhibition and Medicinal Chemistry, 2021)
Several values for one entry are separate records, joined by “and”; a condition that tells them apart may be missing. Equal entries are not always repeated.

Legend:
Test in all cases: NCI one-dose screen
Assay type in all cases: cell-based, human
HOP-92 = conditions: NSCLC HOP-92, 10 µM single dose
Method in brief: (§1)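 One concentration (10 μM) applied to each line of the full NCI-60 panel; percent growth compared against untreated cells.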

DU-145 = conditions: Prostate DU-145, 10 µM single dose
Method in brief: as §1

PC-3 = conditions: Prostate PC-3, 10 µM single dose
Method in brief: as §1

SR = conditions: Leukemia SR, 10 µM single dose
Method in brief: as §1

KM12 = conditions: Colon KM12, 10 µM single dose
Method in brief: (§2)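 Single dose of 10 μM tested across the full NCI-60 cell panel. Values are percent growth inhibition relative to untreated control cells, following standard NCI methodology.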

NCI-H460 = conditions: NSCLC NCI-H460, 10 µM single dose
Method in brief: as §1

OVCAR-5 = conditions: Ovarian OVCAR-5, 10 µM single dose
Method in brief: as §1

HS 578T = conditions: Breast HS 578T, 10 µM single dose
Method in brief: as §1

HCC-2998 = conditions: Colon HCC-2998, 10 µM single dose
Method in brief: as §1

HOP-62 = conditions: NSCLC HOP-62, 10 µM single dose
Method in brief: (§3)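 Following the standard NCI-60 protocol, compounds were applied once at 10 μM to all 60 cancer lines. Read-out is percent growth versus untreated controls, expressed as inhibition %.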

SNB-19 = conditions: CNS SNB-19, 10 µM single dose
Method in brief: as §3

SK-MEL-2 = conditions: Melanoma SK-MEL-2, 10 µM single dose
Method in brief: as §3

LOX IMVI = conditions: Melanoma LOX IMVI, 10 µM single dose
Method in brief: as §1

SF-295 = conditions: CNS SF-295, 10 µM single dose
Method in brief: as §1

NCI-H226 = conditions: NSCLC NCI-H226, 10 µM single dose
Method in brief: (§4)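 Single 10 μM dose, NCI-60 panel; read-out = % growth vs untreated controls → % inhibition.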

U251 = conditions: CNS U251, 10 µM single dose
Method in brief: as §4

COLO 205 = conditions: Colon COLO 205, 10 µM single dose
Method in brief: as §1

SN12C = conditions: Renal SN12C, 10 µM single dose
Method in brief: as §1

HL-60(TB) = conditions: Leukemia HL-60(TB), 10 µM single dose
Method in brief: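 At 10 μM, a single concentration, compounds were evaluated for antiproliferative effect in the NCI 60-line screen, with growth expressed relative to untreated control cells.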

SF-268 = conditions: CNS SF-268, 10 µM single dose
Method in brief: as §2

MOLT-4 = conditions: Leukemia MOLT-4, 10 µM single dose
Method in brief: as §2

NCI-H322M = conditions: NSCLC NCI-H322M, 10 µM single dose
Method in brief: as §1

UO-31 = conditions: Renal UO-31, 10 µM single dose
Method in brief: as §4

NCI-H23 = conditions: NSCLC NCI-H23, 10 µM single dose
Method in brief: as §2

T-47D = conditions: Breast T-47D, 10 µM single dose
Method in brief: as §1

RPMI-8226 = conditions: Leukemia RPMI-8226, 10 µM single dose
Method in brief: as §1

SK-MEL-28 = conditions: Melanoma SK-MEL-28, 10 µM single dose
Method in brief: as §1

MDA-MB-468 = conditions: Breast MDA-MB-468, 10 µM single dose
Method in brief: as §2

IGROV1 = conditions: Ovarian IGROV1, 10 µM single dose
Method in brief: as §1

UACC-257 = conditions: Melanoma UACC-257, 10 µM single dose
Method in brief: as §1

BT-549 = conditions: Breast BT-549, 10 µM single dose
Method in brief: as §1

CAKI-1 = conditions: Renal CAKI-1, 10 µM single dose
Method in brief: as §1

MCF7 = conditions: Breast MCF7, 10 µM single dose
Method in brief: as §2

SW-620 = conditions: Colon SW-620, 10 µM single dose
Method in brief: as §1

K-562 = conditions: Leukemia K-562, 10 µM single dose
Method in brief: as §1

MDA-MB-435 = conditions: Melanoma MDA-MB-435, 10 µM single dose
Method in brief: as §1

OVCAR-8 = conditions: Ovarian OVCAR-8, 10 µM single dose
Method in brief: as §1

SMILES | Growth Percent (HOP-92) | Growth Percent (DU-145) | Growth Percent (PC-3) | Growth Percent (SR) | Growth Percent (KM12) | Growth Percent (NCI-H460) | Growth Percent (OVCAR-5) | Growth Percent (HS 578T) | Growth Percent (HCC-2998) | Growth Percent (HOP-62) | Growth Percent (SNB-19) | Growth Percent (SK-MEL-2) | Growth Percent (LOX IMVI) | Growth Percent (SF-295) | Growth Percent (NCI-H226) | Growth Percent (U251) | Growth Percent (COLO 205) | Growth Percent (SN12C) | Growth Percent (HL-60(TB)) | Growth Percent (SF-268) | further results
COc1cccc(NC(=O)Nc2ccc(Nc3ncnc4sc(C(=O)NCCCC(=O)NO)c(C)c34)cc2)c1 [Compound 12b, 1–(4-(6-((4-(hydroxyamino)-4-oxobutyl)carbamoyl)-5-methylthieno[2,3-d]pyrimidin-4-ylamino)phenyl)-3–(3-methoxyphenyl)urea] | 112.3% and 112.35% | 98.5% and 98.54% | 98.6% and 98.65% | 108.2% and 108.25% | 101.3% and 101.38% | 99.1% | 107.5% and 107.59% | 99.2% | 108.5% and 108.55% | 100.4% and 100.49% | 97.9% | 94.6% and 94.66% | 90.7% and 90.77% | 102.5% and 102.51% | 96.6% and 96.68% | 92.8% and 92.88% | 111.3% and 111.31% | 104.5% and 104.52% | 102.4% | 95.1% | Growth Percent (MOLT-4): 104.7% and 104.76%; Growth Percent (NCI-H322M): 95.9% and 95.94%; Growth Percent (UO-31): 82.0% and 82.06%; Growth Percent (NCI-H23): 97.5% and 97.53%; Growth Percent (T-47D): 97.6% and 97.69%; Growth Percent (RPMI-8226): 106.6% and 106.68%; Growth Percent (SK-MEL-28): 104.0% and 104.05%; Growth Percent (MDA-MB-468): 97.0% and 97.02%; Growth Percent (IGROV1): 97.0% and 97.08%; Growth Percent (UACC-257): 104.3% and 104.35%; Growth Percent (BT-549): 105.5% and 105.57%; Growth Percent (CAKI-1): 97.1% and 97.14%; Growth Percent (MCF7): 91.5%; Growth Percent (SW-620): 101.5% and 101.51%; Growth Percent (K-562): 101.6% and 101.69%; Growth Percent (MDA-MB-435): 100.9%; Growth Percent (OVCAR-8): 103.6% and 103.67%
Cc1c(C(=O)NCCCC(=O)NO)sc2ncnc(Nc3ccc(NC(=O)Nc4cccc(C(F)(F)F)c4)cc3)c12 [Compound 12c, 1–(4-(6-((4-(hydroxyamino)-4-oxobutyl)carbamoyl)-5-methylthieno[2,3-d]pyrimidin-4-ylamino)phenyl)-3–(3-(trifluoromethyl)phenyl)urea] | 130.0% and 130.03% | 106.6% and 106.64% | 111.1% and 111.12% | 103.3% and 103.37% | 102.1% and 102.13% | 101.9% and 101.92% | 111.3% and 111.33% | 93.9% and 93.91% | 113.6% and 113.65% | 103.3% | 96.8% and 96.88% | 107.8% and 107.86% | 98.1% and 98.14% | 93.7% and 93.78% | 105.6% and 105.63% | 87.3% and 87.39% | 114.9% and 114.97% | 104.6% and 104.65% | 104.7% and 104.71% | 98.7% and 98.75% | Growth Percent (MOLT-4): 102.4% and 102.48%; Growth Percent (NCI-H322M): 105.0% and 105.06%; Growth Percent (UO-31): 89.6% and 89.64%; Growth Percent (NCI-H23): 104.6% and 104.64%; Growth Percent (T-47D): 109.7% and 109.79%; Growth Percent (RPMI-8226): 104.0% and 104.09%; Growth Percent (SK-MEL-28): 109.2% and 109.22%; Growth Percent (MDA-MB-468): 105.6% and 105.66%; Growth Percent (IGROV1): 116.7% and 116.77%; Growth Percent (UACC-257): 107.0%; Growth Percent (BT-549): 118.8% and 118.81%; Growth Percent (CAKI-1): 100.6% and 100.67%; Growth Percent (MCF7): 95.2% and 95.26%; Growth Percent (SW-620): 109.4% and 109.44%; Growth Percent (K-562): 103.8% and 103.86%; Growth Percent (MDA-MB-435): 101.5% and 101.59%; Growth Percent (OVCAR-8): 105.9% and 105.93%
Cc1c(C(=O)NO)sc2ncnc(Nc3cccc4[nH]cnc34)c12 [Compound 15a, 4-(1H-benzo[d]imidazol-4-ylamino)-N-hydroxy-5-methylthieno[2,3-d]pyrimidine-6-carboxamide] | 118.2% and 118.26% | 109.5% and 109.53% | 104.3% and 104.34% | 106% and 106.56% | 101.12% | 102.7% and 102.72% | 107.0% and 107.01% | 106.4% and 106.47% | 100.9% and 100.92% | 104.2% | 98.9% and 98.99% | 115.8% and 115.88% | 97.5% and 97.58% | 103.7% | 99.3% and 99.31% | 96.7% and 96.72% | 112.8% and 112.81% | 102.0% and 102.01% | 101.2% and 101.27% | 93.9% | Growth Percent (MOLT-4): 104% and 104.07%; Growth Percent (NCI-H322M): 99.4% and 99.43%; Growth Percent (UO-31): 80.6% and 80.64%; Growth Percent (NCI-H23): 92.2% and 92.27%; Growth Percent (T-47D): 108.3% and 108.35%; Growth Percent (RPMI-8226): 112.17%; Growth Percent (SK-MEL-28): 107.8% and 107.83%; Growth Percent (MDA-MB-468): 101.3% and 101.31%; Growth Percent (IGROV1): 97.9% and 97.91%; Growth Percent (UACC-257): 112.4% and 112.47%; Growth Percent (BT-549): 113.5% and 113.56%; Growth Percent (CAKI-1): 92.9% and 92.95%; Growth Percent (MCF7): 95.2% and 95.25%; Growth Percent (SW-620): 103.6% and 103.66%; Growth Percent (K-562): 101.00%; Growth Percent (MDA-MB-435): 101.5% and 101.54%; Growth Percent (OVCAR-8): 103.6% and 103.64%
